# Laboratory results published in patent publication US20100111947A1, “PHARMACEUTICAL COMPOSITION COMPRISING ANTIBODY COMPOSITION WHICH SPECIFICALLY BINDS TO GANGLIOSIDE GM2” (KYOWA HAKKO KIRIN CO., LTD., priority 2008, published 2010).
# Tested on: KMS-11 cells (human multiple myeloma cell)
# Test: Antitumor effect against KMS-11 cells transplanted subcutaneously into SCID mice (tumor volume V/V0, T/C)
# Format: in vivo
# Details: SCID mouse, KMS-11 xenograft, KM8969 1 mg/kg, L-PAM 3 mg/kg, tail vein
# Protocol: Ten days after the cell transplantation, a diameter of a tumor was measured with calipers, and a tumor volume was calculated using the following formula.
# (Formula) Tumor volume=short diameter×short diameter […]×0.5
# Individuals having the tumor volume within the range of 140 to 184 mm^3 were selected, and grouped such that the average of tumor volume was to be almost the same. Each of following administration groups A to D was administered to the mice. Incidentally, the grouped day was defined as Day 0.
# C. Group administering Melphalan (hereinafter referred to as L-PAM; Sigma) solely: 3 mg/kg was administered on Day 0 and Day 7.
# With time, the tumor volume was measured. The antitumor effect was evaluated by comparing average values of a tumor volume change (V/V0) when the tumor volume on Day 0 in each group was defined as V0.
smiles,measurement,setting,value
"N[C@@H](Cc1ccc(N(CCCl)CCCl)cc1)C(=O)O [L-PAM, Melphalan]",T/C (V/V0 of group divided by V/V0 of negative control group),Day 0,1.0000
same,T/C (V/V0 of group divided by V/V0 of negative control group),Day 4,0.8624
same,T/C (V/V0 of group divided by V/V0 of negative control group),Day 7,0.8354
same,T/C (V/V0 of group divided by V/V0 of negative control group),Day 10,0.6430
same,T/C (V/V0 of group divided by V/V0 of negative control group),Day 14,0.5255
same,T/C (V/V0 of group divided by V/V0 of negative control group),Day 17,0.4159
same,T/C (V/V0 of group divided by V/V0 of negative control group),Day 21,0.2881
same,T/C (V/V0 of group divided by V/V0 of negative control group),Day 24,0.2872
same,T/C (V/V0 of group divided by V/V0 of negative control group),Day 28,0.2348
